{"source": "paper PMC4331650", "about": "(Biochimica et Biophysica Acta, 2014)", "key": {"[1]": {"target": "T1, F256A CLC-Ka (Homo sapiens, UniProt P51800, F256A)", "T1 sequence (P51800 1-687 F256A)": "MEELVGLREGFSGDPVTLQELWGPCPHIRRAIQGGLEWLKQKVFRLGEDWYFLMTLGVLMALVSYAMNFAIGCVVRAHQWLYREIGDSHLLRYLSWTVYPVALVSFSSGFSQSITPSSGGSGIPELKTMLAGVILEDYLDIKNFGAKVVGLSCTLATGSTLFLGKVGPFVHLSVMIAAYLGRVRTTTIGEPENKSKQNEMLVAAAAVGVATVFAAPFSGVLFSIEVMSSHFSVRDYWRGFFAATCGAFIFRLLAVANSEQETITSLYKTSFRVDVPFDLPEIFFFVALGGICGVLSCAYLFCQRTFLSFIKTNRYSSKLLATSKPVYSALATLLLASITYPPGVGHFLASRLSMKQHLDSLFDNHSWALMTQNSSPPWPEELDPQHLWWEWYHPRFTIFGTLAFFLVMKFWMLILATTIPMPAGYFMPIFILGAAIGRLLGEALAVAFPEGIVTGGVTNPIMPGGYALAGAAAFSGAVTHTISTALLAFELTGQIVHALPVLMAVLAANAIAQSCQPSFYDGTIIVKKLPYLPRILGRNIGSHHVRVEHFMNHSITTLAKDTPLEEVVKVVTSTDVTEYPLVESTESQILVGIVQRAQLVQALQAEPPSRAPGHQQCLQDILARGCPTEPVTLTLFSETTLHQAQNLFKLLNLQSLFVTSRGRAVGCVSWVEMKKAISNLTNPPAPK", "T1 sequence (Q8WZ55 1-320 Y98A partner)": "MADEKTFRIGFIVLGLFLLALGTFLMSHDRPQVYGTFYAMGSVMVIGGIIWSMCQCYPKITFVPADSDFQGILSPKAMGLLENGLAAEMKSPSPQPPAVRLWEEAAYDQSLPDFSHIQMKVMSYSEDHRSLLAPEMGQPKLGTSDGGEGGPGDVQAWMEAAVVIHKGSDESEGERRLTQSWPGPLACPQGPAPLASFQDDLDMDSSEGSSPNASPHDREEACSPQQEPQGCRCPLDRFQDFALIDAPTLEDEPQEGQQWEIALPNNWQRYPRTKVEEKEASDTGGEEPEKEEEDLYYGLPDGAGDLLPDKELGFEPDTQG", "assay_type": "cell-based", "conditions": "200 μM NFA, 60 mV"}, "[2]": {"target": "T2, CLC-K1 without barttin (Rattus norvegicus, UniProt Q06393)", "T2 sequence (Q06393 1-687)": "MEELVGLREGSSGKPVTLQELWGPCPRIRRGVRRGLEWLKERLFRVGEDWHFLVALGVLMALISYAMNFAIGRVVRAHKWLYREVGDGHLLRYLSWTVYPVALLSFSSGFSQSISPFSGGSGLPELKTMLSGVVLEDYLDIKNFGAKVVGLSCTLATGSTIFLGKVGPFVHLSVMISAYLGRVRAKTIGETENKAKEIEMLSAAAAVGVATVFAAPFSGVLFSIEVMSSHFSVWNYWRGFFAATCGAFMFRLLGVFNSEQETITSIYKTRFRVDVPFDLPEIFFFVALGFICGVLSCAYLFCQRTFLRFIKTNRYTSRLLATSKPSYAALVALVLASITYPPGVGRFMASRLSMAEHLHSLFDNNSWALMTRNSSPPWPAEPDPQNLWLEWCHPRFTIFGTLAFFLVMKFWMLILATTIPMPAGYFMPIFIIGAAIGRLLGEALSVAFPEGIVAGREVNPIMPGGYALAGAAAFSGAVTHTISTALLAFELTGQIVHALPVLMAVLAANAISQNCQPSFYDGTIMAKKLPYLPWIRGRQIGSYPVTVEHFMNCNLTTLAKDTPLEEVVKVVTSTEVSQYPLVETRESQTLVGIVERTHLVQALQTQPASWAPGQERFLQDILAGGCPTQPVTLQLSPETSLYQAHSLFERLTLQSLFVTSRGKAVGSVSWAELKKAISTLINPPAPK", "assay": "NFA effect on WT CLC-K1 without barttin, voltage clamp in Xenopus oocytes", "assay_type": "cell-based"}, "[3]": {"target": "T3, WT CLC-Ka (Homo sapiens, UniProt P51800)", "T3 sequence (P51800 1-687)": "T1 sequence (P51800 1-687 F256A) with A256F", "T3 sequence (Q8WZ55 1-320 Y98A partner)": "T1 sequence (Q8WZ55 1-320 Y98A partner)", "conditions": "Xenopus oocytes, cited from earlier work"}, "[4]": {"system": "rat CLC-K1", "conditions": "all concentrations tested; cited from earlier work"}}, "note": "Positions count from the first letter of the chain named. Where two headings read alike, the source gives them in different places."}
{"smiles": "O=C(O)c1cccnc1Nc1cccc(C(F)(F)F)c1", "note": "[NFA, niflumic acid]", "values": [{"measurement": "average current increase", "setting": "[1]; SD, n = 5 patches", "result": "39 +/− 13"}, {"measurement": "single channel current in NFA (average)", "setting": "[1]; n = 3", "result": "1.75 ± 0.10", "unit": "pA"}, {"measurement": "distance of Gaussian components of the amplitude histogram in NFA", "setting": "[1]; patch of Fig. 4", "result": 1.8, "unit": "pA"}, {"measurement": "increase of mean current in the patch", "setting": "[1]; the single patch shown in Fig. 4", "result": "about 53 fold"}, {"measurement": "currents relative to control conditions", "setting": "[2]; 10 μM NFA", "result": "about 80%"}, {"measurement": "currents relative to control conditions", "setting": "[2]; 200 μM NFA", "result": "~45", "unit": "%"}, {"measurement": "effect on CLC-Ka currents", "setting": "[3]; [NFA]ext higher than 0.5 mM", "result": "block"}, {"measurement": "effect on CLC-Ka currents", "setting": "[3]; [NFA]ext ≤ 0.5 mM", "result": "increases"}, {"measurement": "effect on rat CLC-K1", "setting": "[4]", "result": "blocked"}]}
